Laboratory results from US6703426B1, “Treatment of breast cancer” (University of Central Florida, priority 2001, dated 2004).
Like-named read-outs stand apart in the source and are kept apart here.

Legend:
white mice [1] = assay: Animal toxicity bioassay (acute toxicity, LD50); format: in vivo; conditions: intraperitoneal injection, observed 14 days
[2] = test system: human breast cancer cells (ATCC HTB123); assay: Cytotoxicity assay (MTS/PMS), growth inhibition of human breast cancer cells; format: cell-based; set-up: concentration or dose not given beside the values; conditions: approximately 48 hours growth with test compound
Description: The activity in human breast cancer of the novel compounds (as earlier reported) was realized by the following procedure which determines the inhibitory effect of test samples on the growth of human breast cancer cells.
(ATCC HTB123) The HTB123 cells are grown in RPMI 1640 media+10% Fetal bovine serum+4.5 g/L glucose+10 mM HEPES+1.0 mM sodium pyruvate+1% Antibiotic/Antimycotic for approximately 48 hours at 37° C./5% CO2 in the presence of the test compound.
Growth/Non-Growth of the cells (e.g., cell density) is determined using Promega's MTS/PMS assay system. MTS (3-(4,5-dimethylthiazol-2-yl)-5-(3-carboxymethoxyphenyl)-2-(4-sulfophenyl)-2H-tetrazolium, inner salt) is an aqueous compound that is reduced to soluble formazan by the presence of NADH formed by dehydrogenases present within the HTB123 cells. The absorbance of the formazan can be measured at 490 nm and is directly proportional to the number of living cells present in the culture. PMS (Phenazine Methosulfate) is added an electron coupling reagent and greatly increases the rate of reduction.
To facilitate a full understanding of the procedure the following definitions are offered:
Test wells—wells containing test sample and Diluted HTB 123 cells
Test values—absorbance of test wells
Blank wells—wells containing test sample and HTB 123 media (HHTB2-01S); used to obtain background absorbance due to test sample
Blank values—absorbance of blank wells.
Negative Control—maximal cell growth; results of test samples will be expressed as a percent of the Negative Control
Positive Control—known inhibitor of HTB123 cells; used to validate assay system
Matrix—solvent that the samples are prepared/diluted in
Assay samples of similar origin and matrix (e.g., methanol extraction, methylene chloride extraction, water soluble samples, etc.) together on the same plate in order to reduce the number of steps performed per plate.
Blank values will be determined for each sample to account for any color contribution due to the sample itself. These blank wells must contain the same amount of sample plus HTB123 media (no cells). After completion of MTS/PMS reaction blank values will be subtracted from the test value to obtain a net absorbance that will be used to calculate cell density.
All results are based upon a comparison to the Negative Control value of the plate. The Negative Control must contain the same amount of matrix (e.g., solvent) to offset any destructive effect the matrix may have on the growth of the HTB123 cells (allows for baseline values to be set).
For most samples, a HTB123 cell growth (diluted two to four-fold, depending upon the appearance of the inoculum*) of approximately 48 hours followed by and incubation of 3 hours with the MTS/PMS Reagent is optimal.
*Due to the nature of the HTB123 cells it is very difficult to obtain accurate cell densities. Continuation of the HTB123 cell line typically consists of the dilution of mature cells at two or three-fold into fresh media and growth at 37° C./5% CO2 for two to three days.
In order to establish the accuracy of this assay a Positive Control consisting of 50 μM Methotrexate should […] 90% of the Negative Control (HTB123 cells are somewhat resistant to methotrexate) is utilized.

[3] = Animal toxicity bioassay (acute toxicity, LD50); format: in vivo; conditions: both sexes, mouse, in vivo, ip, white mice, intraperitoneal injection, observed 14 days
[4] = Solubility in solvents and water; format: physicochemical; conditions: for Solubility in organic solvents: organic solvents as listed
Stability in solution = format: physicochemical; conditions: solution heated or stored for a long time; decomposes with formation of OF-12
white mice [5] = conditions: same bioassay system (JZKEDZ 6,1,1980); cited from earlier work
[6] = background statement; cited from earlier work
[7] = read-out: LD50 (animal toxicity)

Structure (SMILES)	Activity (ATCC HTB123) [2]	LD50 at 14 days [3, 7]	percent activity against human breast carcinoma [2]	Solubility in organic solvents [4]	further results
COC(=O)/C(=C/C(=O)c1ccccc1)NN=C1c2ccccc2-c2ccccc21 [1F-04, 2-(N′-Fluoren-9-ylidene-hydrazino)-4-oxo-4-phenyl-but-2-enoic acid methyl ester]	93%	–	–	–	LD50 (white mice [1]): >1000 mg/kg
COC(=O)C1(O)C(C(=O)c2ccc(C)cc2)=C(O)C(=O)N1c1ccc(C)cc1C (centres unmarked) [1F-07, 1-(2,4-Dimethyl-phenyl)-2,4-dihydroxy-3-(4-methyl-benzoyl)-5-oxo-2,5-dihydro-1H-pyrrole-2-carboxylic acid methyl ester]	–	> 500 mg/kg	100%	highly soluble in DMSO, acetonitrile, slightly soluble in dichloroethane, benzene, insoluble in hexane tetrachloromethane	Solubility in water [4]: insoluble
COc1ccc(C(=O)C(=NNc2ccccc2)C(=O)C(=O)O)cc1 [3F-10, 4-(4-Methoxy-phenyl)-2,4-dioxo-3-(phenyl-hydrazono)-butyric acid]	–	< 750 mg/kg	100%	highly soluble in DMSO, DMFA, slightly soluble in chloroform, dichloroethane; insoluble in hexanes	–
CCOC(=O)C(=O)C(=NNc1ccccc1)C(=O)c1ccc(Cl)cc1 [3F-11, 4-(4-Chloro-phenyl)-2,4-dioxo-3-(phenyl-hydrazono)-butyric acid ethyl ester]	–	> 2000 mg/kg	100%	–	–
COc1c(F)c(F)c(C(=O)C=C(O)C(=O)O)c(F)c1F [3F-15, 2-Hydroxy-4-oxo-4-(2,3,5,6-tetrafluoro-4-methoxy-phenyl)-but-2-enoic acid]	–	> 200 mg/kg	100%	–	–
Cc1ccc(C(=O)C2=NN(c3ccccc3)C(=O)C2(O)O)cc1 [3F-16, 4,4-Dihydroxy-5-(4-methyl-benzoyl)-2-phenyl-2,4-dihydro-pyrazol-3-one]	–	> 500 mg/kg	100%	highly soluble in DMSO, dioxane	Solubility in water [4]: insoluble
CCOc1ccc(C(Cl)=CC(=NN=C2c3ccccc3-c3ccccc32)C(=O)OC)cc1 [3F-19, 4-Chloro-4-(4-ethoxy-phenyl)-2-(fluoren-9-ylidene-hydrazono)-but-3-enoic acid methyl ester]	100%	–	–	–	LD50 at 14 days ([3]; read-out: LD50): > 200 mg/kg
COC(=O)C(=CC(=O)C(C)(C)C)NN=C1c2ccccc2-c2ccccc21 [OF-06, 2-(N′-Fluoren-9-ylidene-hydrazino)-5,5-dimethyl-4-oxo-hex-2-enoic acid methyl ester]	–	–	100%	highly soluble in DMSO, DMFA, dichloroethane, acetonitrile, slightly soluble in ethanol, tetrachloromethane, insoluble in hexane	Solubility in water [4]: insoluble
CCOc1ccc(C(=O)CC(O)(NN=C2c3ccccc3-c3ccccc32)C(=O)OC)cc1 (centres unmarked) [OF-13, 4-(4-Ethoxy-phenyl)-2-(N′-fluoren-9-ylidene-hydrazino)-2-hydroxy-4-oxo-butyric acid methyl ester]	100%	–	–	highly soluble in DMSO, DMFA, dichloroethane, acetonitrile, insoluble in hexane	LD50 (white mice [1]): >1500 mg/kg; Stability in solutions (Stability in solution): not stable in solutions
COC(=O)/C(=C/C(=O)c1ccccc1)N/N=C(\C)c1ccc(Cl)cc1 [OF-20, 2-{N′-[1-(4-Chloro-phenyl)-ethylidene]-hydrazino}-4-oxo-4-phenyl-but-2-enoic acid methyl ester]	83%	–	–	–	–
CC(=O)O[C@H]1C(=O)[C@@]2(C)[C@H]([C@H](OC(=O)c3ccccc3)[C@]3(O)C[C@H](OC(=O)[C@H](O)[C@@H](NC(=O)c4ccccc4)c4ccccc4)C(C)=C1C3(C)C)[C@]1(OC(C)=O)CO[C@@H]1C[C@@H]2O [Taxol]	–	–	–	–	intraperitoneal LD50 dose in mice (white mice [5]): 218 mg/kg; Solubility in water [6]: insoluble in water
